Test results: PubChem BioAssay (NCI)
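Assay format: 96-well plates, 48-hour exposure. The concentration for 50% growth inhibition is given as GI50. TGI denotes the concentration required for complete inhibition of growth.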

Assays:
Assay in all cases: DTP human tumour cell line panel, 48 h
[1] = test system: HCC-2998 colon
[2] = test system: U251 CNS
[3] = test system: UO-31 renal
[4] = test system: MDA-MB-468 breast
[5] = test system: SK-MEL-5 melanoma
[6] = test system: HOP-62 NSCLC
[7] = test system: A549 NSCLC
[8] = test system: HT29 colon
[9] = test system: TK-10 renal
[10] = test system: SN12C renal
[11] = test system: K-562 leukemia
[12] = test system: SK-MEL-28 melanoma
[13] = test system: MOLT-4 leukemia
[14] = test system: T-47D breast
[15] = test system: HS 578T breast
[16] = test system: DU-145 prostate
[17] = test system: KM12 colon
[18] = test system: LOX IMVI melanoma
[19] = test system: UACC-62 melanoma
[20] = test system: SF-268 CNS
[21] = test system: OVCAR-5 ovarian
[22] = test system: MCF7 breast
[23] = test system: NCI-H226 lung
[24] = test system: UACC-257 melanoma
[25] = test system: CCRF-CEM leukemia
[26] = test system: MDA-MB-435
[27] = test system: SNB-19 CNS
[28] = test system: HL-60(TB) leukemia
[29] = test system: OVCAR-8 ovarian
[30] = test system: SK-MEL-2 melanoma

## CN(C)c1ccc(/C=C/c2n(Cc3ccc4ccccc4c3)c3ccccc3[n+]2Cc2ccc3ccccc3c2)cc1
[1]
  GI50: 325 nM
  TGI: 1330 nM
[2]
  GI50: 166 nM
  TGI: 1270 nM
[3]
  GI50: 530 nM
  TGI: 1840 nM
[4]
  GI50: 165 nM
  TGI: 731 nM
[5]
  GI50: 181 nM
  TGI: 346 nM
[6]
  GI50: 351 nM
  TGI: 1410 nM
[7]
  GI50: 317 nM
  TGI: 1520 nM
[8]
  GI50: 235 nM
  TGI: 1340 nM
[9]
  GI50: 416 nM
  TGI: 1680 nM
[10]
  GI50: 286 nM
  TGI: 1070 nM
[11]
  GI50: 228 nM
  TGI: > 22900 nM
[12]
  GI50: 491 nM
  TGI: 1710 nM
[13]
  GI50: 303 nM
  TGI: 1660 nM
[14]
  GI50: 294 nM
  TGI: 1500 nM
[15]
  GI50: 270 nM
  TGI: 1420 nM
[16]
  GI50: 354 nM
  TGI: 1420 nM
[17]
  GI50: 315 nM
  TGI: 1300 nM
[18]
  GI50: 269 nM
  TGI: 999 nM
[19]
  GI50: 281 nM
  TGI: 1020 nM
[20]
  GI50: 383 nM
  TGI: 1630 nM
[21]
  GI50: 360 nM
  TGI: 1410 nM
[22]
  GI50: 281 nM
  TGI: 1100 nM
[23]
  GI50: 257 nM
  TGI: 1010 nM
[24]
  GI50: 265 nM
  TGI: 919 nM
[25]
  GI50: 315 nM
  TGI: 1410 nM
[26]
  GI50: 338 nM
  TGI: 1240 nM
[27]
  GI50: 296 nM
  TGI: 1190 nM
[28]
  GI50: 228 nM
  TGI: 795 nM
[29]
  GI50: 312 nM
  TGI: 1350 nM
[30]
  GI50: 271 nM
